Reference: publication doi:10.1101/2022.10.08.511437v2 (biorxiv, 2023)

Assays:
[1] = target: T1, full-length elephant shark GR (Callorhinchus milii, UniProt V9KGN8); assay: cell-based; parameters: species or system HEK293
T1 sequence (V9KGN8 1-704): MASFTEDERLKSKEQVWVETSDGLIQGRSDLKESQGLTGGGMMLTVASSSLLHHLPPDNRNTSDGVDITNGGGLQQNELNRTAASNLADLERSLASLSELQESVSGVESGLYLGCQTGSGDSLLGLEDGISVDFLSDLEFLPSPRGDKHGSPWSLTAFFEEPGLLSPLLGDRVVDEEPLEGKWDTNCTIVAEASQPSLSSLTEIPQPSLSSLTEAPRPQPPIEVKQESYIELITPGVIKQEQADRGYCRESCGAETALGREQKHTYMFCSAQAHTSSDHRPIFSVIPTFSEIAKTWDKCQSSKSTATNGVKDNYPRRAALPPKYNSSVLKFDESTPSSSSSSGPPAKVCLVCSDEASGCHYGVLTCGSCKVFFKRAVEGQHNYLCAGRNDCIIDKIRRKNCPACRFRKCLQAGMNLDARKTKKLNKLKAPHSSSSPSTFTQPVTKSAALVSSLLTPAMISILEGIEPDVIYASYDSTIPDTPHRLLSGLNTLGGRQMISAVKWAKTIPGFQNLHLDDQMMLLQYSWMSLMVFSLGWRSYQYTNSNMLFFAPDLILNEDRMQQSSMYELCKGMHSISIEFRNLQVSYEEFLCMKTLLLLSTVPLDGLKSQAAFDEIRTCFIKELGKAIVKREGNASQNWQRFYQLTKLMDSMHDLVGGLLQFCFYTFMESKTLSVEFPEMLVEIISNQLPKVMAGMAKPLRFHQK

[2] = target: T1, full-length elephant shark GR; assay: cell-based; parameters: species or system HEK293; remark: listed apart in the source
[3] = target: T1, full-length elephant shark GR; assay: luciferase reporter transactivation in HEK293 cells; assay type: cell-based
[4] = target: T2, full-length elephant shark MR (Callorhinchus milii, UniProt A0A4W3I5J5); assay: cell-based; parameters: species or system HEK293
T2 sequence (A0A4W3I5J5 1-956): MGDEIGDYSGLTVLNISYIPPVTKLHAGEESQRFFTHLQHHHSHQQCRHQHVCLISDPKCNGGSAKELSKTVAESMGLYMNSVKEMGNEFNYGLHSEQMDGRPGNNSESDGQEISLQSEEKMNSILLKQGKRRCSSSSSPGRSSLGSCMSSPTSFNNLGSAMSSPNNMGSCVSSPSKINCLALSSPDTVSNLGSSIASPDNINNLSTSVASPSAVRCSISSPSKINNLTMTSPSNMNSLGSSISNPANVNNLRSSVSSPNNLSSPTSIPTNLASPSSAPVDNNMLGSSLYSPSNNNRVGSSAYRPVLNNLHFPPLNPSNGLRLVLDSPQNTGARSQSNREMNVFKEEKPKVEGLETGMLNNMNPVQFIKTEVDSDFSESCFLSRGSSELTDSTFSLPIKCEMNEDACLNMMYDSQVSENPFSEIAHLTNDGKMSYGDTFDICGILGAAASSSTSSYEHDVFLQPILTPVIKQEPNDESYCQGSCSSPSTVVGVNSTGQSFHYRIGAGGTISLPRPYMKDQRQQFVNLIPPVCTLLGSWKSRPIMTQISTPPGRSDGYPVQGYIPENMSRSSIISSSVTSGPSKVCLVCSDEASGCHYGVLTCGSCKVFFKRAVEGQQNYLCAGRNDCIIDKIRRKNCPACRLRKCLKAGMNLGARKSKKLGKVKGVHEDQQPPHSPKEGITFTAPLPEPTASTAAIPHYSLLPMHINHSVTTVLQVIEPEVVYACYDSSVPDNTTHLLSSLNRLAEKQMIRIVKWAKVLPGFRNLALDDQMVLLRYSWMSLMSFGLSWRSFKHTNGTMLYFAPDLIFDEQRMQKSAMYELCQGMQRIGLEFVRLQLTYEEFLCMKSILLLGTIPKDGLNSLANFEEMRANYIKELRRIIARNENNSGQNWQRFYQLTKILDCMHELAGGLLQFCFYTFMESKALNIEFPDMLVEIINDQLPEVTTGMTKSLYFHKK

| SMILES | EC50 [1] [nM] | EC50 [2] [nM] | EC50 [3] [nM] | EC50 [4] [nM] |
| --- | --- | --- | --- | --- |
| C[C@]12CCC(=O)C=C1CC[C@@H]1[C@@H]2[C@@H](O)C[C@]2(C=O)[C@@H](C(=O)CO)CC[C@@H]12 [aldosterone] |  |  |  | 0.08 |
| C[C@]12C[C@H](O)[C@H]3[C@@H](CCC4=CC(=O)CC[C@@]43C)[C@@H]1CC[C@@H]2C(=O)CO [corticosterone] |  |  |  | 1 |
| C[C@]12CCC(=O)C=C1CC[C@@H]1[C@@H]2[C@@H](O)C[C@@]2(C)[C@H]1CC[C@]2(O)C(=O)CO [cortisol] |  |  |  | 2.4 |

Results, then the compound that gave them:

| EC50 [1] [nM] | EC50 [2] [nM] | EC50 [3] [nM] | EC50 [4] [nM] | SMILES |
| --- | --- | --- | --- | --- |
| 11.2 | 11 |  |  | C[C@]12CC[C@H]3[C@@H](CCC4=CC(=O)CC[C@@]43C)[C@@H]1CC[C@@H]2C(=O)CO [11-deoxycorticosterone] |
|  |  | 289 | 0.2 | C[C@]12CCC(=O)C=C1CC[C@@H]1[C@@H]2CC[C@@]2(C)[C@H]1CC[C@]2(O)C(=O)CO [11-deoxycortisol] |
